Assay results as given in ChEMBL document CHEMBL4507301 (2021).

Columns and labels:
[1] = molecular target: Mitogen-activated protein kinase 6 (Homo sapiens) (UniProt Q16659); conditions: Compound concentration 1000.0 nM
[2] = molecular target: D(3) dopamine receptor (Homo sapiens) (UniProt P35462); conditions: Compound concentration 10.0 uM
[3] = molecular target: Serine/threonine-protein kinase WNK1 (Homo sapiens) (UniProt Q9H4A3); conditions: Compound concentration 1000.0 nM
[4] = molecular target: Dual specificity protein kinase CLK2 (Homo sapiens) (UniProt P49760); conditions: Compound concentration 1000.0 nM
[5] = molecular target: Receptor-type tyrosine-protein kinase FLT3 (Homo sapiens) (UniProt P36888); conditions: Compound concentration 1000.0 nM
Sequence of Receptor-type tyrosine-protein kinase FLT3 (Homo sapiens) (P36888 whole entry): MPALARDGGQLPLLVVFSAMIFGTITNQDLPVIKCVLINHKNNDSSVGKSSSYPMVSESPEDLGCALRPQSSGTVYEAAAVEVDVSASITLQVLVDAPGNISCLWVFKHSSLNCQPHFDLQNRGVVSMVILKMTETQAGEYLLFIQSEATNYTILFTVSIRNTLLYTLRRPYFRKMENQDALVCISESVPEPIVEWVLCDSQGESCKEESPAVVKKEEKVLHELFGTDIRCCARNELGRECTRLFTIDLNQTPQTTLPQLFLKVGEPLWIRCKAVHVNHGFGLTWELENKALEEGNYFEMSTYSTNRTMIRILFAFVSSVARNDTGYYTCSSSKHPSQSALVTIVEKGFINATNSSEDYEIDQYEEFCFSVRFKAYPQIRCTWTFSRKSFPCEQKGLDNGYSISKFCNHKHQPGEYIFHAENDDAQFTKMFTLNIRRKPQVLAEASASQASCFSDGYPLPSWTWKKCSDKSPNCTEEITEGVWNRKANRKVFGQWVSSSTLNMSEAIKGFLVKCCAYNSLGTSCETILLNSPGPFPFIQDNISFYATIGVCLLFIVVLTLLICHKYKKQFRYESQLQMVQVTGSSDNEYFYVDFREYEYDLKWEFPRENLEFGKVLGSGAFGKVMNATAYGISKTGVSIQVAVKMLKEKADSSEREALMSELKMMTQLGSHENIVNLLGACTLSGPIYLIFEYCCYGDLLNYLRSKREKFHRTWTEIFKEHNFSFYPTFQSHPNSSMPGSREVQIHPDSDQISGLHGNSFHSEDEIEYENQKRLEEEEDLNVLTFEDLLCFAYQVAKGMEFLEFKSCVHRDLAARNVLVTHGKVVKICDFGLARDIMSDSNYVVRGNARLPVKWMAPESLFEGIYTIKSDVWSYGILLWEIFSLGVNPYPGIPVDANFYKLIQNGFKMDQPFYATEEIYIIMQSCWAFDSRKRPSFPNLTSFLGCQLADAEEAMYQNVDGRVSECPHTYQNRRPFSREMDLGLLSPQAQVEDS

[6] = molecular target: Proto-oncogene tyrosine-protein kinase Src (Homo sapiens) (UniProt P12931); conditions: Compound concentration 1000.0 nM
[7] = molecular target: ALK tyrosine kinase receptor (Homo sapiens) (UniProt Q9UM73); conditions: Compound concentration 1000.0 nM
Sequence of ALK tyrosine kinase receptor (Homo sapiens) (Q9UM73 19-1620 limits assumed): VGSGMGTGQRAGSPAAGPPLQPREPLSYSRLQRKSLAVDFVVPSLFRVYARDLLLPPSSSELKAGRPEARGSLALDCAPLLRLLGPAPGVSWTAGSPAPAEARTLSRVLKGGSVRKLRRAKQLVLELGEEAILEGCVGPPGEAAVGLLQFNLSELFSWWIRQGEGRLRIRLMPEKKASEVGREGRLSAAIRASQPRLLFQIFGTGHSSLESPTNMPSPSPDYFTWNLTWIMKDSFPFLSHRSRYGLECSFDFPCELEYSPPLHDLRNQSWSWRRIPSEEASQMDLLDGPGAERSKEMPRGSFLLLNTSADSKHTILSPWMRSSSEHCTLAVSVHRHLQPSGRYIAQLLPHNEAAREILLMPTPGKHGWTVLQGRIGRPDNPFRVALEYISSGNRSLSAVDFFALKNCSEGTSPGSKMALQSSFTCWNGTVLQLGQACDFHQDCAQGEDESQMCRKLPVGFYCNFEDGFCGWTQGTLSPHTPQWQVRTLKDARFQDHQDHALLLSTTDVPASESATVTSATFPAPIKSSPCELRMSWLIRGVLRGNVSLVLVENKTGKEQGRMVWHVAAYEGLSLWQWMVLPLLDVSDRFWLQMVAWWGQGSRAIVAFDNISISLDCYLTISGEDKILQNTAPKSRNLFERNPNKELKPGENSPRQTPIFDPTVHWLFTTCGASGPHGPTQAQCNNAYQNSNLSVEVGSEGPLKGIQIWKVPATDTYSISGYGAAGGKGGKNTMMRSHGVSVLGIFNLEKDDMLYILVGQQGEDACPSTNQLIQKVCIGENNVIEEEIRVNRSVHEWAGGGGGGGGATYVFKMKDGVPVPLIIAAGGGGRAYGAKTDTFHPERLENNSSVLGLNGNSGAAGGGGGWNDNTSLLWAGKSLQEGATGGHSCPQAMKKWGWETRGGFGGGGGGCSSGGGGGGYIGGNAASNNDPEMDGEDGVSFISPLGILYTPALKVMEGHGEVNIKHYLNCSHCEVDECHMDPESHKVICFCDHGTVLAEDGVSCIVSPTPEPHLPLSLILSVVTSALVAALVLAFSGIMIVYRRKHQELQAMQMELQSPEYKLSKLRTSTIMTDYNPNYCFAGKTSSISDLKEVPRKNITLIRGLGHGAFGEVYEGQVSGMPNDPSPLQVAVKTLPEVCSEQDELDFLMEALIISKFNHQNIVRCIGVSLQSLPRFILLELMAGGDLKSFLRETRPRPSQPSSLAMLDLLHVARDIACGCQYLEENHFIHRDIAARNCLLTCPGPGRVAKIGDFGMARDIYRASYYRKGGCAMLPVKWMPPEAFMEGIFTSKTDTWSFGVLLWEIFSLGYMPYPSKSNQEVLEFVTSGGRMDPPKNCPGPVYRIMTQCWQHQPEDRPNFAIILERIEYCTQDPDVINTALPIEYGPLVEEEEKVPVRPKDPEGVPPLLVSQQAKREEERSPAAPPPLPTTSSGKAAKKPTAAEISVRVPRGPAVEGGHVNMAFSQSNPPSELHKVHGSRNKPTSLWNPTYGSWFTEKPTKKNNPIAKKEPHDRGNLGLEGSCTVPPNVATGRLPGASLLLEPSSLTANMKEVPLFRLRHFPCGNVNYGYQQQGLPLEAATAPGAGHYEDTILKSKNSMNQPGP

[8] = molecular target: Serine/threonine-protein kinase ULK1 (Homo sapiens) (UniProt O75385); conditions: Compound concentration 1000.0 nM
[9] = tested on: Epidermal growth factor receptor (Homo sapiens), P00533 [L858R,T790M]; conditions: Compound concentration 1000.0 nM
[10] = molecular target: Serine/threonine-protein kinase PLK2 (Homo sapiens) (UniProt Q9NYY3); conditions: Compound concentration 1000.0 nM
Sequence of Serine/threonine-protein kinase PLK2 (Homo sapiens) (Q9NYY3 whole entry, looked up): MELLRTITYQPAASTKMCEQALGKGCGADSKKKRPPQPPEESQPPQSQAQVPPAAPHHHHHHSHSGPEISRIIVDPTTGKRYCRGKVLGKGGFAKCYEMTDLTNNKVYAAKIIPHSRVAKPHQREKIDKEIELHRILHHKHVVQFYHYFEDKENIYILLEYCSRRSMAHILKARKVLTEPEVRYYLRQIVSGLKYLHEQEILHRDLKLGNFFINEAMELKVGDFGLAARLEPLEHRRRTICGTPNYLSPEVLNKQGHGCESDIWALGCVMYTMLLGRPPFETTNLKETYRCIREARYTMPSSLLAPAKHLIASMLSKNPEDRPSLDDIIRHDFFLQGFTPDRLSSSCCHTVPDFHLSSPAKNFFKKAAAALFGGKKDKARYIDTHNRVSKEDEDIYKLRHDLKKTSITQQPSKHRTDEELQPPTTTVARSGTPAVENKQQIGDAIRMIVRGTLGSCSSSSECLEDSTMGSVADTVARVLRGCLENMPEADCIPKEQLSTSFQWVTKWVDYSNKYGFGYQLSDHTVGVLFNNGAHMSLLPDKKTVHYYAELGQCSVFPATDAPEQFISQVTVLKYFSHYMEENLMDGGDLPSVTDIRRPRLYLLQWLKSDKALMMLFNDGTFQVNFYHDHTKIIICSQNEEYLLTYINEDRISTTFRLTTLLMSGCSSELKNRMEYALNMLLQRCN

[11] = molecular target: Serine/threonine-protein kinase D1 (Homo sapiens) (UniProt Q15139); conditions: Compound concentration 1000.0 nM
[12] = molecular target: Ribosomal protein S6 kinase alpha-4 (Homo sapiens) (UniProt O75676); conditions: Compound concentration 1000.0 nM
[13] = molecular target: Serine/threonine-protein kinase Nek3 (Homo sapiens) (UniProt P51956); conditions: Compound concentration 1000.0 nM
[14] = molecular target: Platelet-derived growth factor receptor beta (Homo sapiens) (UniProt P09619); conditions: Compound concentration 1000.0 nM
[15] = molecular target: Mast/stem cell growth factor receptor Kit (Homo sapiens) (UniProt P10721); conditions: Compound concentration 1000.0 nM
[16] = molecular target: TGF-beta receptor type-1 (Homo sapiens) (UniProt P36897); conditions: Compound concentration 1000.0 nM
[17] = tested on: Mast/stem cell growth factor receptor Kit (Homo sapiens), P10721 [D816V]; conditions: Compound concentration 1000.0 nM
[18] = molecular target: Serine/threonine-protein kinase tousled-like 2 (Homo sapiens) (UniProt Q86UE8); conditions: Compound concentration 1000.0 nM
[19] = molecular target: Tyrosine-protein kinase JAK1 (Homo sapiens) (UniProt P23458); conditions: Compound concentration 1000.0 nM
[20] = molecular target: Serine/threonine-protein kinase 24 (Homo sapiens) (UniProt Q9Y6E0); conditions: Compound concentration 1000.0 nM
[21] = molecular target: Serine/threonine-protein kinase RIO1 (Homo sapiens) (UniProt Q9BRS2); conditions: Compound concentration 1000.0 nM
[22] = molecular target: Serine/threonine-protein kinase pim-3 (Homo sapiens) (UniProt Q86V86); conditions: Compound concentration 1000.0 nM
[23] = molecular target: Dual specificity tyrosine-phosphorylation-regulated kinase 2 (Homo sapiens) (UniProt Q92630); conditions: Compound concentration 1000.0 nM
[24] = molecular target: Activated CDC42 kinase 1 (Homo sapiens) (UniProt Q07912); conditions: Compound concentration 1000.0 nM
[25] = molecular target: Serine/threonine-protein kinase STK11 (Homo sapiens) (UniProt Q15831); conditions: Compound concentration 1000.0 nM
[26] = molecular target: Tyrosine-protein kinase Blk (Homo sapiens) (UniProt P51451); conditions: Compound concentration 1000.0 nM
[27] = tested on: Proto-oncogene tyrosine-protein kinase receptor Ret (Homo sapiens), P07949 [V804M]; conditions: Compound concentration 1000.0 nM
[28] = molecular target: 5-hydroxytryptamine receptor 1A (Homo sapiens) (UniProt P08908); conditions: Compound concentration 10.0 uM
[29] = molecular target: Dual specificity mitogen-activated protein kinase kinase 5 (Homo sapiens) (UniProt Q13163); conditions: Compound concentration 1000.0 nM
[30] = molecular target: Cyclin-dependent kinase 15 (Homo sapiens) (UniProt Q96Q40); conditions: Compound concentration 1000.0 nM
[31] = molecular target: Serine/threonine-protein kinase MARK2 (Homo sapiens) (UniProt Q7KZI7); conditions: Compound concentration 1000.0 nM
Sequence of Serine/threonine-protein kinase MARK2 (Homo sapiens) (Q7KZI7 whole entry): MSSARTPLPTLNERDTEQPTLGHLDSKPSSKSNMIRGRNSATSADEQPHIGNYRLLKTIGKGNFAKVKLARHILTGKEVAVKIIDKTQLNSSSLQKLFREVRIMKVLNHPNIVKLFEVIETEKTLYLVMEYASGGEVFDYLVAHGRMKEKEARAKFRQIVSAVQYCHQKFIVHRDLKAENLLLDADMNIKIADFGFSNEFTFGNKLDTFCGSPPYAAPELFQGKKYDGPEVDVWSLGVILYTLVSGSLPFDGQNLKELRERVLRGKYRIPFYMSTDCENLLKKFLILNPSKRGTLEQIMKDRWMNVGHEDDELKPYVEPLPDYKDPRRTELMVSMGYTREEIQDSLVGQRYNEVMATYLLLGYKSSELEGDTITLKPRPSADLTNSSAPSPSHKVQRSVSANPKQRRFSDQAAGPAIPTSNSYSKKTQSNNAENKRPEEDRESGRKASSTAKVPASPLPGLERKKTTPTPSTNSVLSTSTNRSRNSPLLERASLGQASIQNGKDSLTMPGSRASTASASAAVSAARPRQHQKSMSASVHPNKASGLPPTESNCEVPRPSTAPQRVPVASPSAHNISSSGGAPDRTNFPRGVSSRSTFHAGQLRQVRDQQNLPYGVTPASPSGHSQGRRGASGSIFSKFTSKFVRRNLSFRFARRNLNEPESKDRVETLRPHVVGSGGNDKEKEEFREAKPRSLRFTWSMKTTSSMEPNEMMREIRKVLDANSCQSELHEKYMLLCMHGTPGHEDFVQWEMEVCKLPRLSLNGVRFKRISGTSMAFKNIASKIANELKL

[32] = molecular target: Serine/threonine-protein kinase Nek4 (Homo sapiens) (UniProt P51957); conditions: Compound concentration 1000.0 nM
[33] = molecular target: Phosphatidylinositol 4-phosphate 3-kinase C2 domain-containing subunit beta (Homo sapiens) (UniProt O00750); conditions: Compound concentration 1000.0 nM
[34] = tested on: Tyrosine-protein kinase ABL1 (Homo sapiens), P00519 [F317L]; conditions: Compound concentration 1000.0 nM
[35] = molecular target: 5-hydroxytryptamine receptor 2C (Homo sapiens) (UniProt P28335); conditions: Compound concentration 10.0 uM
[36] = tested on: Receptor-type tyrosine-protein kinase FLT3 (Homo sapiens), P36888 [UNDEFINED MUTATION]; conditions: Compound concentration 1000.0 nM
Sequence of Receptor-type tyrosine-protein kinase FLT3 (Homo sapiens), P36888 [UNDEFINED MUTATION] (P36888 whole entry, looked up, change not shown): as the sequence (P36888 whole entry) above

[37] = molecular target: Calcium/calmodulin-dependent protein kinase type IV (Homo sapiens) (UniProt Q16566); conditions: Compound concentration 1000.0 nM
[38] = molecular target: 3-phosphoinositide-dependent protein kinase 1 (Homo sapiens) (UniProt O15530); conditions: Compound concentration 1000.0 nM
[39] = molecular target: Eukaryotic translation initiation factor 2-alpha kinase 1 (Homo sapiens) (UniProt Q9BQI3); conditions: Compound concentration 1000.0 nM
Rattus norvegicus = organism: Rattus norvegicus; conditions: Compound concentration 10.0 uM
[40] = molecular target: Homeodomain-interacting protein kinase 3 (Homo sapiens) (UniProt Q9H422); conditions: Compound concentration 1000.0 nM
[41] = tested on: Receptor-type tyrosine-protein kinase FLT3 (Homo sapiens), P36888 [UNDEFINED MUTATION]; conditions: Compound concentration 1000.0 nM; remark: listed apart in the source
[42] = molecular target: TGF-beta receptor type-2 (Homo sapiens) (UniProt P37173); conditions: Compound concentration 1000.0 nM
Sequence of TGF-beta receptor type-2 (Homo sapiens) (P37173 whole entry, the tested form may be a part): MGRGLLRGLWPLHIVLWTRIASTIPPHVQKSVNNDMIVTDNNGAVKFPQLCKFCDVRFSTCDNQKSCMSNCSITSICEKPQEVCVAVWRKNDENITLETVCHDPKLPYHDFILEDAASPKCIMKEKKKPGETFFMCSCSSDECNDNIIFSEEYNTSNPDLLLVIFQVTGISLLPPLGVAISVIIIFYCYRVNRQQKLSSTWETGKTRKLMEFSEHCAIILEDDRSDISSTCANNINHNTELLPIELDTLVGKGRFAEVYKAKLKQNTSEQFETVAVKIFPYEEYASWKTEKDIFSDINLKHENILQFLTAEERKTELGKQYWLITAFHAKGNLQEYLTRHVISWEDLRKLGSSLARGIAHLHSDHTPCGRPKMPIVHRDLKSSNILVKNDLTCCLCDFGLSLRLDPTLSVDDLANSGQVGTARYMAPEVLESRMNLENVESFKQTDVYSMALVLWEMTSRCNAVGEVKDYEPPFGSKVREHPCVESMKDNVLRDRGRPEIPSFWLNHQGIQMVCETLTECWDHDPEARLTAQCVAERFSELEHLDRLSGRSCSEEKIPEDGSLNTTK

[43] = molecular target: Ankyrin repeat and protein kinase domain-containing protein 1 (Homo sapiens) (UniProt Q8NFD2); conditions: Compound concentration 1000.0 nM
[44] = molecular target: Casein kinase I isoform gamma-2 (Homo sapiens) (UniProt P78368); conditions: Compound concentration 1000.0 nM

Sequence of D(3) dopamine receptor (Homo sapiens) (P35462 whole entry): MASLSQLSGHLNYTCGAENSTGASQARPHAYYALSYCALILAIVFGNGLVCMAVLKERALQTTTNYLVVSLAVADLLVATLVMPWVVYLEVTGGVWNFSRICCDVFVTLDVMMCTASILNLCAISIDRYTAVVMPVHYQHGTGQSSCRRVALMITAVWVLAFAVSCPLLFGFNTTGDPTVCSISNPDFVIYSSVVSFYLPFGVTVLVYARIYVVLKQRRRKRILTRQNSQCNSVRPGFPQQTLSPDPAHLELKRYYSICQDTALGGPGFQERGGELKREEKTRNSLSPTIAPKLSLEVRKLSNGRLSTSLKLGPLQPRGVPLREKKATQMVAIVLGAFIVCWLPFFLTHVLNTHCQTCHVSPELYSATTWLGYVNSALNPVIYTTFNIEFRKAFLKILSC

What does the source list for `C[C@@H](c1cccc(C#N)c1)n1cc(Cl)cc(C(N)=O)c1=N` [(S)-9s]?
residual activity [1]: 100%; inhibition [2]: -3.38%; residual activity [3]: 97%; residual activity [4]: 100%; residual activity [5]: 100%; residual activity [6]: 99%; residual activity [7]: 83%; residual activity [8]: 72%; residual activity [9]: 86%; residual activity [10]: 97%; residual activity [11]: 90%; residual activity [12]: 80%; residual activity [13]: 44%; residual activity [14]: 84%; residual activity [15]: 78%; residual activity [16]: 81%; residual activity [17]: 94%; residual activity [18]: 100%; residual activity [19]: 94%; residual activity [20]: 100%; residual activity [21]: 86%; residual activity [22]: 100%; residual activity [23]: 98%; residual activity [24]: 95%; residual activity [25]: 74%; residual activity [26]: 85%; residual activity [27]: 89%; inhibition [28]: 1.02%; residual activity [29]: 88%; residual activity [30]: 89%; residual activity [31]: 100%; residual activity [32]: 96%; residual activity [33]: 96%; residual activity [34]: 0%; inhibition [35]: 16.8%; residual activity [36]: 96%; residual activity [37]: 82%; residual activity [38]: 100%; residual activity [39]: 95%; inhibition (Rattus norvegicus): 1.07%; residual activity [40]: 70%; residual activity [41]: 85%; residual activity [42]: 100%; residual activity [43]: 95%; residual activity [44]: 100%

What does the source list for `C[C@H](c1cccc(C#N)c1)n1cc(Cl)cc(C(N)=O)c1=N` [(R)-9s]?
residual activity [1]: 0%; inhibition [2]: 7.03%; residual activity [3]: 89%; residual activity [4]: 100%; residual activity [5]: 95%; residual activity [6]: 88%; residual activity [7]: 79%; residual activity [8]: 78%; residual activity [9]: 89%; residual activity [10]: 92%; residual activity [11]: 100%; residual activity [12]: 69%; residual activity [13]: 66%; residual activity [14]: 83%; residual activity [15]: 98%; residual activity [16]: 100%; residual activity [17]: 87%; residual activity [18]: 100%; residual activity [19]: 57%; residual activity [20]: 89%; residual activity [21]: 100%; residual activity [22]: 100%; residual activity [23]: 84%; residual activity [24]: 83%; residual activity [25]: 96%; residual activity [26]: 78%; residual activity [27]: 100%; inhibition [28]: -4.95%; residual activity [29]: 100%; residual activity [30]: 84%; residual activity [31]: 100%; residual activity [32]: 100%; residual activity [33]: 100%; residual activity [34]: 83%; inhibition [35]: 9.56%; residual activity [36]: 100%; residual activity [37]: 90%; residual activity [38]: 100%; residual activity [39]: 100%; inhibition (Rattus norvegicus): 10.7%; residual activity [40]: 81%; residual activity [41]: 82%; residual activity [42]: 100%; residual activity [43]: 98%; residual activity [44]: 99%
